Activity calls are given as the source filed them. The calls are words filed in the database; no cut-off is given here.
Columns and labels:
[1] = cells; conditions: Homo sapiens, OVCA433, 48 h
Description: Antiproliferative activity against human OVCA433 cells measured after 48 hrs by MTT assay

[2] = biological target: T1, Glycogen synthase kinase-3 beta (Homo sapiens, UniProt P49841); experiment: biochemical
Description: Inhibition of recombinant N-terminal His6-tagged human GSK3beta H350L mutant expressed in baculovirus infected Sf21 insect cells using polypeptide GS-2 as substrate after 30 mins in presence of ATP by kinase-glo luminescence assay

[3] = system: A2780; experiment: Antiproliferative activity against human A2780 cells measured after 48 hrs by MTT assay; type: functional, cell-based; conditions: A2780, 48 h
[4] = system: Glycogen synthase kinase-3 beta (Homo sapiens), P49841 [UNDEFINED MUTATION]; experiment: Non-competitive inhibition of recombinant N-terminal His6-tagged human GSK3beta H350L mutant expressed in baculovirus infected Sf21 insect cells at 20 to 50 uM in presence of varying levels of ATP and constant GS-2 substrate concentration after 30 mins by double reciprocal plot analysis
Sequence of Glycogen synthase kinase-3 beta (Homo sapiens), P49841 [UNDEFINED MUTATION] (P49841 whole entry, looked up, stated change not applied): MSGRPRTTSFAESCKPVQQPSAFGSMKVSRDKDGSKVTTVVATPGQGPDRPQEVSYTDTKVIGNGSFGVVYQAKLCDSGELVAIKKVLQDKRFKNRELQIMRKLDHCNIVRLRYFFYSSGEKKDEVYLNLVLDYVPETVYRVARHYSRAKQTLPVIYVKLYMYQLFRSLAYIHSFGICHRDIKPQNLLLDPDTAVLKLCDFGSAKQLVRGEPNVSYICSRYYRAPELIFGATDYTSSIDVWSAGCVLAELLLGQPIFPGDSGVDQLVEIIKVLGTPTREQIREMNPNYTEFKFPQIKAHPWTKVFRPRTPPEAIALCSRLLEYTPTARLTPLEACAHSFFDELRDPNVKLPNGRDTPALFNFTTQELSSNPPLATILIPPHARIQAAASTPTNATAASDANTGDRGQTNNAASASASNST

[5] = system: Glycogen synthase kinase-3 beta (Homo sapiens), P49841 [UNDEFINED MUTATION]; experiment: Non-competitive inhibition of recombinant N-terminal His6-tagged human GSK3beta H350L mutant expressed in baculovirus infected Sf21 insect cells at 20 to 50 uM in presence of constant levels of ATP and varying GS-2 substrate concentration after 30 mins by double reciprocal plot analysis
[6] = biological target: T1, Glycogen synthase kinase-3 beta
Description: Inhibition of GSK3beta (unknown origin)

[7] = system: Glycogen synthase kinase-3 beta (Homo sapiens), P49841 [UNDEFINED MUTATION]; experiment: Non-competitive inhibition of recombinant N-terminal His6-tagged human GSK3beta H350L mutant expressed in baculovirus infected Sf21 insect cells at 6.25 to 12.5 uM in presence of varying levels of ATP and constant GS-2 substrate concentration after 30 mins by double reciprocal plot analysis
[8] = system: Glycogen synthase kinase-3 beta (Homo sapiens), P49841 [UNDEFINED MUTATION]; experiment: Non-competitive inhibition of recombinant N-terminal His6-tagged human GSK3beta H350L mutant expressed in baculovirus infected Sf21 insect cells at 6.25 to 12.5 uM in presence of constant levels of ATP and varying GS-2 substrate concentration after 30 mins by double reciprocal plot analysis
[9] = biological target: Receptor tyrosine-protein kinase erbB-4 (Homo sapiens) (UniProt Q15303); experiment: Inhibition of ErbB4 (unknown origin) using poly (Glu, Tyr) 4:1 as substrate after 1 hr by ELISA relative to control; conditions: concentration not given here
Sequence of Receptor tyrosine-protein kinase erbB-4 (Homo sapiens) (Q15303 whole entry): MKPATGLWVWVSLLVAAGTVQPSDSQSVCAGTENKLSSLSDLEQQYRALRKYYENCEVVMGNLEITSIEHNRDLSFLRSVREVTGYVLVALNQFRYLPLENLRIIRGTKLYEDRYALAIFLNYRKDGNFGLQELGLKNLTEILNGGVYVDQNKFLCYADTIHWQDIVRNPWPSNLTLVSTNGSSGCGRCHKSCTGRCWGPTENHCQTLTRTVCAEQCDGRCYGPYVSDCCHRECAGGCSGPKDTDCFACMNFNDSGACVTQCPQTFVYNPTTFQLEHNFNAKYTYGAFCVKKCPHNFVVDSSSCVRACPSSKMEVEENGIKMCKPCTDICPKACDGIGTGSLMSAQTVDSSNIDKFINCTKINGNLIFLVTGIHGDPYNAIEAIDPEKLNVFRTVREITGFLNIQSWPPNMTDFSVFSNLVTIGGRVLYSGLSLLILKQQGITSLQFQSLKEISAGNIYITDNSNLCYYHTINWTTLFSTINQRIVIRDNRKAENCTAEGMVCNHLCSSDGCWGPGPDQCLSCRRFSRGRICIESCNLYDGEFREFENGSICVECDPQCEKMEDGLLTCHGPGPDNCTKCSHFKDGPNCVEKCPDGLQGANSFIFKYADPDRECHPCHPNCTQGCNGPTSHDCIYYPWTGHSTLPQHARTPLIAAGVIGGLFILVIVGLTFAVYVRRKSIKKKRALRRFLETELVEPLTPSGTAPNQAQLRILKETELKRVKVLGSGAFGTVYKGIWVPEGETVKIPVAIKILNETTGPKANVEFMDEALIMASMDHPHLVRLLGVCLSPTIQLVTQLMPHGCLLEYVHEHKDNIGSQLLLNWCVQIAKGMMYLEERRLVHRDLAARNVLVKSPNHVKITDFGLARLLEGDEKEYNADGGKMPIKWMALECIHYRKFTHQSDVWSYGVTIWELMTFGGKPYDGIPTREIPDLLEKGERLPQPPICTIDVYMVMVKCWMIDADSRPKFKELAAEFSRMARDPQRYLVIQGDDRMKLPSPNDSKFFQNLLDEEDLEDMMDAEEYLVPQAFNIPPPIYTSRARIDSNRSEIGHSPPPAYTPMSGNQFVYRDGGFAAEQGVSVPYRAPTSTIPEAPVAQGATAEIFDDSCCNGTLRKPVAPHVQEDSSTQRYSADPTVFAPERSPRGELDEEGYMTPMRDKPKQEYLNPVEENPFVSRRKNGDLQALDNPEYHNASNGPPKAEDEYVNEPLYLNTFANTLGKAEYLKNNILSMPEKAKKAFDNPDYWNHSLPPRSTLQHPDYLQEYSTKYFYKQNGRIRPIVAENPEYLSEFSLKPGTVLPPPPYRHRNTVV

T1 sequence (P49841 whole entry): as the sequence (P49841 whole entry, looked up, stated change not applied) above

Compound	IC50 [1] [µM]	IC50 [2] [µM]	IC50 [3] [µM]	also measured
CCCCCCCCCCCCCCC(=O)N1CCC(NC(=O)C2Sc3ccccc3N(CC)C2=O)CC1 (configuration not stated)	17.5	17.9	9	–
CCCCCCCCCCC(=O)N1CCN(C(=O)C2Sc3ccccc3N(CC)C2=O)CC1 (configuration not stated)	22.9	27.1	21.8	–
CCCCCCCCCCCC(=O)N1CCN(C(=O)C2Sc3ccccc3N(CC)C2=O)CC1 (configuration not stated)	19.5	23.2	16.6	–
CCCCCCCCC(=O)N1CCC(NC(=O)C2Sc3ccccc3N(CC)C2=O)CC1 (configuration not stated)	90.6	> 100	24.7	–
CCCCCCCCCCCC(=O)N1CCC(NC(=O)C2Sc3ccccc3N(CC)C2=O)CC1 (configuration not stated)	26.8	29.7	16.6	–
Cn1sc(=O)n(Cc2ccccc2)c1=O	15.3	–	20	–
CCCCCCCCCCCCCC(=O)N1CCC(NC(=O)C2Sc3ccccc3N(CC)C2=O)CC1 (configuration not stated)	14.9	27.3	13.1	–
CCCCCCCCCCCCCC(=O)NC1CCN(C(=O)C2Sc3ccccc3N(CC)C2=O)CC1 (configuration not stated)	26.2	33.4	9.1	–
CCCCCCCCC(=O)NC1CCN(C(=O)C2Sc3ccccc3N(CC)C2=O)CC1 (configuration not stated)	> 100	> 100	33.1	–
CCCCCCCCCCCCCCCC(=O)N1CCC(NC(=O)C2Sc3ccccc3N(CC)C2=O)CC1 (configuration not stated)	30.4	18.6	11.4	–
CCCCCCCCCC(=O)N1CCC(NC(=O)C2Sc3ccccc3N(CC)C2=O)CC1 (configuration not stated)	47.7	74.9	23.6	–
CCCCCCCCC(=O)N1CCN(C(=O)C2Sc3ccccc3N(CC)C2=O)CC1 (configuration not stated)	81.8	> 100	34.1	–
CCCCCCCCCCCCNC(=O)C1Sc2ccccc2N(CC)C1=O (configuration not stated)	> 100	22.9	15.5	–
CCCCCCCCCCCCCC(=O)N1CCN(C(=O)C2Sc3ccccc3N(CC)C2=O)CC1 (configuration not stated)	16.9	18.9	16.7	–
CCCCCCCCCCC(=O)N1CCC(NC(=O)C2Sc3ccccc3N(CC)C2=O)CC1 (configuration not stated)	28.2	44.3	16.6	–
CCCCCCCCCCCCCCCC(=O)NC1CCN(C(=O)C2Sc3ccccc3N(CC)C2=O)CC1 (configuration not stated)	69.8	11.7	3.5	inhibition [4]: Active; inhibition [5]: Active
CCCCCCCCCCCC(=O)NC1CCN(C(=O)C2Sc3ccccc3N(CC)C2=O)CC1 (configuration not stated)	28.4	33.4	13	–
O=C1Cc2cc(Br)ccc2/C1=c1/[nH]c2ccccc2/c1=C\O	–	–	–	IC50 [6]: 0.005 µM
CCCCCCCCCCCCCCCC(=O)N1CCN(C(=O)C2Sc3ccccc3N(CC)C2=O)CC1 (configuration not stated)	15.4	8.7	13.2	inhibition [7]: Active; inhibition [8]: Active
CN(C)C/C=C/C(=O)Nc1cc2c(Nc3ccc(F)c(Cl)c3)ncnc2cc1O[C@H]1CCOC1	–	–	–	inhibition [9]: 98.2%
CCCCCCCCCC(=O)N1CCN(C(=O)C2Sc3ccccc3N(CC)C2=O)CC1 (configuration not stated)	89.5	51.7	36	–
CCCCCCCCCC(=O)NC1CCN(C(=O)C2Sc3ccccc3N(CC)C2=O)CC1 (configuration not stated)	77.4	68.3	27.2	–
CCCCCCCCCCC(=O)NC1CCN(C(=O)C2Sc3ccccc3N(CC)C2=O)CC1 (configuration not stated)	34.4	45.9	23.4	–
CCN1C(=O)C(C(=O)N2CCC(NC(=O)CCCCCc3ccccc3)CC2)Sc2ccccc21 (configuration not stated)	> 100	> 100	36	–
CCCCCCCCCCCCCCCCC(=O)NC1CCN(C(=O)C2Sc3ccccc3N(CC)C2=O)CC1 (configuration not stated)	> 100	46.7	4.7	–
CCCCCCCCCCCC(=O)NNC(=O)C1Sc2ccccc2N(CC)C1=O (configuration not stated)	> 100	11.9	40.7	–

From ChEMBL document CHEMBL4052632 (Eur J Med Chem, 2017)
